Data taken from the C3SDB collision cross section collection.
Structures can show the parent of a compound that is named as a salt.

Conditions: [M+H]+; instrument: TW; calibrated with polyalanine and drug standards

| SMILES | collision cross section (N2) [Å²] |
| --- | --- |
| CC1(C)CC2C1CC[C@]1(C)CCC3C(C(=O)O)CC(=O)O[C@@]32C1 (stereo partly specified) [3-HYDROXY-4-(SUCCIN-2-YL)-CARYOLANE delta-LACTONE] | 174.9 |
| CC(=O)Nc1cc([As](=O)(O)O)ccc1O [ACETARSOL] | 151.5 |
| Cc1nc2ccccn2c(=O)c1CCN1CCC(C(=O)c2ccc(F)cc2)CC1 [PIRENPERONE] | 196.8 |
| C[C@@H]1O[C@@H](OC[C@H]2O[C@@H](Oc3c(-c4ccc(OCCO)c(OCCO)c4)oc4cc(OCCO)cc(O)c4c3=O)[C@H](O)[C@@H](O)[C@@H]2O)[C@H](O)[C@H](O)[C@H]1O [TROXERUTIN] | 259 |
| C[C@H]1O[C@@H](O[C@H]2[C@@H](O)C[C@H](O[C@H]3[C@@H](O)C[C@H](O[C@H]4CC[C@@]5(C)[C@H](CC[C@@H]6[C@@H]5C[C@@H](O)[C@]5(C)[C@@H](C7=CC(=O)OC7)CC[C@]65O)C4)O[C@@H]3C)O[C@@H]2C)C[C@H](O)[C@@H]1O [DIGOXIN] | 322.5 |
| COc1ccc(-c2oc3ccccc3c(=O)c2O)cc1OC [3-HYDROXY-3',4'-DIMETHOXYFLAVONE] | 164.1 |
| CCCC(C)(COC(N)=O)COC(=O)NC(C)C (stereo unspecified) [CARISOPRODOL] | 149.1 |
| CC(C)c1ccc2c(c1O)CC[C@H]1C3=C(CC[C@]21C)C(=O)OC3 [TRIPTOPHENOLIDE] | 179.4 |
| COC1=CC(=O)C(O)=C/C1=C\C=C\c1ccccc1 [OBTUSAQUINONE] | 155.1 |
| COc1c(O)cc2c(c1O)[C@@H]1O[C@H](CO)[C@@H](O)[C@H](O)[C@H]1OC2=O [BERGENIN] | 168.3 |
| COc1ccc2c(c1)OC/C(=C\c1ccc(OC)c(O)c1)C2=O [SAPPANONE A DIMETHYL ETHER] | 170.3 |
| CCC1(c2ccc(N)cc2)CCC(=O)NC1=O (stereo unspecified) [AMINOGLUTETHIMIDE] | 164.8 |
| COc1ccc(-c2cc(=O)c3c(O)cc(O)cc3o2)cc1 [ACACETIN] | 160.3 |
| Cc1coc2c1C(=O)C(=O)c1c-2ccc2c1CCCC2(C)C [TANSHINONE IIA] | 164 |
| COc1cc(O)cc(OC)c1OC [ANTIAROL] | 133.5 |
| CC(=O)OCC(=O)[C@@]1(O)[C@H](OC(C)=O)C[C@H]2[C@@H]3CCC4=CC(=O)C=C[C@]4(C)[C@@]3(F)[C@@H](O)C[C@@]21C [TRIAMCINOLONE DIACETATE] | 209.5 |
| CC[C@]12CCCN3CCc4c(n(c5ccccc45)[C@@](O)(C(=O)OC)C1)[C@@H]32 [VINCAMINE] | 180.9 |
| O=c1ccc2cc(O[C@@H]3O[C@H](CO)[C@@H](O)[C@H](O)[C@H]3O)c(O)cc2o1 [AESCULIN] | 174 |
| CN1C(=O)CCS(=O)(=O)C1c1ccc(Cl)cc1 (stereo unspecified) [CHLORMEZANONE] | 158.2 |
| Cc1cccc(Nc2ccccc2C(=O)O)c1C [MEFENAMIC ACID] | 153.3 |
| CC1=C(CC(=O)O)c2cc(F)ccc2/C1=C\c1ccc(S(C)=O)cc1 (stereo unspecified) [SULINDAC] | 191.6 |
| COc1ccc(C(=O)N2CCCC2=O)cc1 [ANIRACETAM] | 146.6 |
| N[C@@H](Cc1ccc(N(CCCl)CCCl)cc1)C(=O)O [MELPHALAN] | 168.7 |
| Nc1ncnc2c1ncn2[C@@H]1O[C@H](CO)[C@@H](O)[C@@H]1O [VIDARABINE] | 156.4 |
| c1ccc2c(c1)[nH]c1cnccc12 [NORHARMAN] | 132.2 |
| CC(C)Cn1c(=O)n(C)c(=O)c2[nH]cnc21 [3-ISOBUTYL-1-METHYLXANTHINE (IBMX)] | 147.8 |
| C[C@@H]1O[C@@H](OC[C@H]2OC(Oc3c(-c4ccc(O)c(O)c4)oc4cc(O)cc(O)c4c3=O)[C@H](O)[C@@H](O)[C@@H]2O)[C@H](O)[C@H](O)[C@H]1O (stereo partly specified) [RUTOSIDE  (rutin)] | 230.7 |

Second part, the compound after the results:

| collision cross section (N2) [Å²] | SMILES |
| --- | --- |
| 164.4 | CCc1cccc2c3c([nH]c12)C(CC)(CC(=O)O)OCC3 (stereo unspecified) [ETODOLAC] |
| 230.2 | CC(=O)Oc1c(C)c(C)c2c(c1C)CCC(C)(CCCC(C)CCCC(C)CCCC(C)C)O2 (stereo not drawn) [alpha-TOCHOPHERYL ACETATE] |
| 144.5 | O=C(O)c1ccccc1Nc1ccccc1 [N-PHENYLANTHRANILIC ACID] |
| 189.5 | COc1c(N2CCNC(C)C2)c(F)cc2c(=O)c(C(=O)O)cn(C3CC3)c12 (stereo unspecified) [GATIFLOXACIN] |
| 164 | Nc1nc(=S)c2ncn([C@@H]3O[C@H](CO)[C@@H](O)[C@H]3O)c2[nH]1 [THIOGUANOSINE] |
| 187.2 | CC(C)CCCC(C)C1CCC2C3CCC4CC(=O)CCC4(C)C3CCC12C (stereo unspecified) [CHOLESTAN-3-ONE] |
| 179 | CCCCN(CCCC)CCCOC(=O)c1ccc(N)cc1 [BUTACAINE] |
| 128.8 | COc1cc(/C=C/C(=O)O)ccc1O [FERULIC ACID] |
| 144.1 | c1coc(CNc2ncnc3nc[nH]c23)c1 [KINETIN] |
| 151.4 | Cc1cc(NS(=O)(=O)c2ccc(N)cc2)no1 [SULFAMETHOXAZOLE] |
| 152 | O=c1cc(-c2ccccc2)oc2c(O)c(O)ccc12 [7,8-DIHYDROXYFLAVONE] |
| 182 | O=c1oc2ccccc2c(O)c1Cc1c(O)c2ccccc2oc1=O [DICUMAROL] |
| 152.5 | CCOc1ccc(NC(=O)CC(C)O)cc1 (stereo unspecified) [BUCETIN] |
| 201.4 | CC(C)=CCc1c2c(c3occ(-c4ccc(O)cc4)c(=O)c3c1O)C=CC(C)(C)O2 [OSAJIN] |
| 131.6 | CC(=O)c1cc2ccccc2oc1=O [3-ACETYLCOUMARIN] |
| 130.6 | CC(=O)Nc1cccc(O)c1 [METACETAMOL] |
| 222.1 | CC(=O)O[C@H]1CC[C@@]2(C)[C@H](CC[C@@H]3[C@@H]2CC[C@]2(C)[C@@H]4[C@H](C[C@@H]32)O[C@]2(CC[C@@H](C)CO2)[C@H]4C)C1 [SMILAGENIN ACETATE] |
| 158.6 | C=CCc1ccccc1OCC(O)CNC(C)C (stereo unspecified) [ALPRENOLOL] |
| 146.7 | CC(C)(CO)[C@@H](O)C(=O)NCCC(=O)[O-] [PANTOTHENIC ACID(d) Na salt] |
| 178.6 | CC(C)C1CCC(C(=O)N[C@H](Cc2ccccc2)C(=O)O)CC1 (stereo partly specified) [NATEGLINIDE] |
| 123 | O=c1ncnc2[nH][nH]cc1-2 [ALLOPURINOL] |
| 174.6 | C#C[C@]1(O)CC[C@H]2[C@@H]3CCC4=C(CCC(=O)C4)[C@H]3CC[C@@]21C [NORETHYNODREL] |

Same assay, conditions: [M+Na]+; instrument: TW; calibrated with polyalanine and drug standards

| collision cross section (N2) [Å²] | SMILES |
| --- | --- |
| 134.5 | C=CCS(=O)C[C@H](N)C(=O)O (stereo partly specified) [ALLIIN] |
| 161.4 | O=Cc1ccccc1O[C@@H]1O[C@H](CO)[C@@H](O)[C@H](O)[C@H]1O [HELICIN] |
